Patent publication US8822449B2, “Substituted aminoindanes and analogs thereof, and the pharmaceutical use thereof” (Sanofi, priority 2008, dated 2014)
Where two headings read alike, the source gives them in different places.

Target: T1, sodium-proton exchanger of subtype 3 (NHE3) (Homo sapiens, UniProt P48764)
T1 construct: expressed in transfected cells
T1 sequence (P48764 26-834): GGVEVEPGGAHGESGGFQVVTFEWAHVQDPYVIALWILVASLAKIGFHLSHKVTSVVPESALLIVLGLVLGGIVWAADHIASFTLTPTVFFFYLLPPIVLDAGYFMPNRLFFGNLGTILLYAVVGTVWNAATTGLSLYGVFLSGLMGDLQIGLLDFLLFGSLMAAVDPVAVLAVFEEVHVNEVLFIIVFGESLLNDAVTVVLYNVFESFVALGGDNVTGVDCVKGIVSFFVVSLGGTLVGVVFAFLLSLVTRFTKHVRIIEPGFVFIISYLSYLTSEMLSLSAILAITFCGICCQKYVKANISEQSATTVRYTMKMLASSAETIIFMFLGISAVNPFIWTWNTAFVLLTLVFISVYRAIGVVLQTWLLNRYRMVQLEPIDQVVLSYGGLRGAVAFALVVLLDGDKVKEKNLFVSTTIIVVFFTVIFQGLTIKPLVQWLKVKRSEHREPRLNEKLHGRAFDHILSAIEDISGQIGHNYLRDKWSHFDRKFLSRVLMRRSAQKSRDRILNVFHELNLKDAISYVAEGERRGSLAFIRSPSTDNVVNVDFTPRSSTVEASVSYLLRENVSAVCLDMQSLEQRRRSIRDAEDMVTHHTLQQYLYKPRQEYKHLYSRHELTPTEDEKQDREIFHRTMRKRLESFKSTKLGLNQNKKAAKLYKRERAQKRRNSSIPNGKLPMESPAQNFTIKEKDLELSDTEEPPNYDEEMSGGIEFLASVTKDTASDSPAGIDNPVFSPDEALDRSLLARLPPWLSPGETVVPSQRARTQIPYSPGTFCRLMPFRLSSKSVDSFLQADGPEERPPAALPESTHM
Experiment: Recovery of intracellular pH (pHi) after acidification in LAP1 cells stably expressing NHE3 (BCECF fluorescence, FLIPR)
Assay type: cell-based
Conditions: LAP1 cells stably expressing NHE3, pH recovery after acidification, range 1 is % inhibition at 10 μM

[1] = read-out: Activity range (inhibitory effect on NHE3)

SMILES	inhibition at 10 µM [1] [%]	IC50 [1] [nM]	also measured
N[C@H]1CCCN([C@H]2CCc3ccccc3[C@@H]2Oc2ccccc2OC(F)(F)F)C1 (racemic) [Example 159, (S)-1-[rac-trans-(1,2)-1-(2-trifluoromethoxyphenoxy)-1,2,3,4-tetrahydronaphthalen-2-yl]piperidin-3-ylamine]	20 to 50		
Clc1cc(Cl)c2c(c1)[C@H](Oc1ccc(-n3cncn3)cc1)[C@@H](N1C[C@H]3CC[C@@H](C1)N3)C2 [Example 2, 3-[trans-(1S,2S)-4,6-dichloro-1-(4-[1,2,4]triazol-1-ylphenoxy)indan-2-yl]-3,8-diazabicyclo[3.2.1]octane]			IC50 (Activity range (inhibitory effect on NHE3)): 1000 to 10000 nM
CN1CCN(c2cc(O[C@H]3c4cc(Cl)cc(Cl)c4C[C@@H]3N3CC[C@@H](O)C3)ccc2Cl)C1=O [Example 311, 1-{2-chloro-5-[(1S,2S)-4,6-dichloro-2-((R)-3-hydroxypyrrolidin-1-yl)indan-1-yloxy]phenyl}-3-methylimidazolidin-2-one]	20 to 50		
Cn1ccn(-c2ccc(Cl)c(O[C@H]3c4cc(F)cc(F)c4C[C@@H]3N3CC[C@@H](O)C3)c2)c1=O [Example 338, 1-{4-chloro-3-[(1S,2S)-4,6-difluoro-2-((R)-3-hydroxypyrrolidin-1-yl)indan-1-yloxy]phenyl}-3-methyl-1,3-dihydroimidazol-2-one]		1000 to 10000	
Clc1ccc(O[C@@H]2c3ccccc3C[C@H]2N2C[C@H]3CNC[C@H]3C2)cn1 (racemic) [Example 18, 2-[rac-trans-(1,2)-1-(6-chloropyridin-3-yloxy)indan-2-yl]octahydropyrrolo[3,4-c]pyrrole]		1000 to 10000	
COc1cc(Cl)cc(O[C@@H]2c3ccccc3C[C@H]2N2CCC[C@H](N)C2)c1 (racemic) [Example 164, (S)-1-[rac-trans-(1,2)-1-(3-chloro-5-methoxyphenoxy)indan-2-yl]piperidin-3-ylamine]		1000 to 10000	
CS(=O)(=O)c1ccc(O[C@H]2c3cc(F)cc(Cl)c3C[C@@H]2N2CCNCC2)cc1 (racemic) [Example 283, 1-[rac-trans-(1,2)-4-chloro-6-fluoro-1-(4-methanesulfonylphenoxy)indan-2-yl]piperazine]		< 1000	
N[C@H]1CCCN([C@H]2CCc3ccccc3[C@@H]2Oc2ccc(OC(F)F)cc2)C1 (racemic) [Example 176, (S)-1-[rac-trans-(1,2)-1-(4-difluoromethoxyphenoxy)-1,2,3,4-tetrahydronaphthalen-2-yl]piperidin-3-ylamine]	20 to 50		
N[C@H]1CCCN([C@H]2CCc3ccccc3[C@@H]2Oc2ccc(Br)cc2-c2cc[nH]n2)C1 (racemic) [Example 203, (S)-1-{rac-trans-(1,2)-1-[4-bromo-2-(1H-pyrazol-3-yl)phenoxy]-1,2,3,4-tetrahydronaphthalen-2-yl}piperidin-3-ylamine]	20 to 50		
O=c1[nH]ccn1-c1ccc(O[C@H]2c3cc(Cl)cc(Cl)c3C[C@@H]2N2CC[C@@H](O)C2)c(F)c1 [Example 323, 1-{4-[(1S,2S)-4,6-dichloro-2-((R)-3-hydroxypyrrolidin-1-yl)indan-1-yloxy]-3-fluorophenyl}-1,3-dihydroimidazol-2-one]		< 1000	
N[C@H]1CCCN([C@H]2CCc3ccccc3[C@@H]2Oc2ccccc2N2CCOCC2)C1 (racemic) [Example 158, (S)-1-[rac-trans-(1,2)-1-(2-morpholin-4-ylphenoxy)-1,2,3,4-tetrahydronaphthalen-2-yl]piperidin-3-ylamine]	20 to 50		
N[C@H]1CCCN([C@H]2CCc3ccccc3[C@@H]2Oc2ccc(N3CCNCC3)cc2)C1 (racemic) [Example 184, (S)-1-[rac-trans-(1,2)-1-(4-piperazin-1-ylphenoxy)-1,2,3,4-tetrahydronaphthalen-2-yl]piperidin-3-ylamine]	20 to 50		
N[C@@H]1CCCN([C@@H]2Cc3ccccc3[C@H]2Oc2ccc3ccncc3c2)C1 (racemic) [Example 85, (R)-1-[rac-trans-(1,2)-1-(isoquinolin-7-yloxy)indan-2-yl]piperidin-3-ylamine]		1000 to 10000	
O[C@@H]1CCN([C@H]2Cc3c(Cl)cc(Cl)cc3[C@@H]2Oc2ccc(F)cc2-c2ccn[nH]2)C1 [Example 137, (R)-1-{trans-(1S,2S)-4,6-dichloro-1-[4-fluoro-2-(2H-pyrazol-3-yl)phenoxy]indan-2-yl}pyrrolidin-3-ol]	20 to 50		
O=C1CCCN1c1ccc(O[C@H]2c3cc(Cl)cc(Cl)c3C[C@@H]2N2CC[C@@H](O)C2)c(Cl)c1 [Example 321, 1-{3-chloro-4-[(1S,2S)-4,6-dichloro-2-((R)-3-hydroxypyrrolidin-1-yl)indan-1-yloxy]phenyl}pyrrolidin-2-one]		< 1000	

Now from value to compound, other results behind:

inhibition at 10 µM [1] [%]	IC50 [1] [nM]	SMILES	also measured
	1000 to 10000	CC(=O)Nc1cccc(O[C@@H]2c3ccccc3C[C@H]2N2CCSCC2)c1 (racemic) [Example 642, N-[3-(rac-trans-(1,2)-2-thiomorpholin-4-ylindan-1-yloxy)phenyl]acetamide]	
	1000 to 10000	CN(C1CCCC1)[C@@H]1Cc2ccccc2[C@H]1Oc1ccc(S(C)(=O)=O)cc1 (racemic) [Example 730, Cyclopentyl-[rac-trans-(1,2)-1-(4-methanesulfonyl-phenoxy)-indan-2-yl]-methyl-amine]	
20 to 50		CN(C)C(=O)Cc1ccc(O[C@H]2c3ccccc3CC[C@@H]2N2CCC[C@H](N)C2)cc1 (racemic) [Example 382, 2-{4-[rac-trans-(1,2)-2-((S)-3-aminopiperidin-1-yl)-1,2,3,4-tetrahydronaphthalen-1-yloxy]phenyl}-N,N-dimethylacetamide]	
20 to 50		Fc1ccc(O[C@H]2c3cc(Cl)cc(Cl)c3C[C@@H]2N2CCNCC2)c2ncccc12 [Example 592, 8-((1S,2S)-4,6-dichloro-2-piperazin-1-ylindan-1-yloxy)-5-fluoroquinoline]	
	< 1000	O=C1OCCN1c1ccc(Cl)c(O[C@H]2c3cc(Cl)cc(F)c3C[C@@H]2N2CC[C@@H](O)C2)c1 [Example 439, 3-{4-chloro-3-[(1S,2S)-6-chloro-4-fluoro-2-((R)-3-hydroxypyrrolidin-1-yl)indan-1-yloxy]phenyl}oxazolidin-2-one]	
20 to 50		COc1cc(C#N)cc(Cl)c1O[C@H]1c2ccccc2CC[C@@H]1N1CCC[C@@H](N)C1 (racemic) [Example 512, 4-[rac-trans-(1,2)-2-((R)-3-aminopiperidin-1-yl)-1,2,3,4-tetrahydronaphthalen-1-yloxy]-3-chloro-5-methoxy-benzonitrile]	
	1000 to 10000	CS(=O)(=O)c1ccc(O[C@@H]2c3ccccc3C[C@H]2NCC2CC2)cc1 (racemic) [Example 624, Cyclopropylmethyl-[1-(4-methanesulfonylphenoxy)indan-2-yl]amine]	
	1000 to 10000	NCC1CCN([C@@H]2Cc3ccccc3[C@H]2Oc2ccc(C(N)=O)cc2)CC1 (racemic) [Example 548, 4-[rac-trans-(1,2)-2-(4-aminomethylpiperidin-1-yl)indan-1-yloxy]benzamide]	
	< 1000	NC(=O)c1cc(Cl)ccc1O[C@H]1c2ccccc2CC[C@@H]1N1CCC[C@H](N)C1 (racemic) [Example 370, 2-[rac-trans-(1,2)-2-((S)-3-aminopiperidin-1-yl)-1,2,3,4-tetrahydronaphthalen-1-yloxy]-5-chlorobenzamide]	
	1000 to 10000	Cc1cccc2c1C[C@H](N1CCCC1)[C@H]2Oc1ccc(S(N)(=O)=O)cc1 (racemic) [Example 472, 4-(rac-trans-(1,2)-4-methyl-2-pyrrolidin-1-ylindan-1-yloxy)benzenesulfonamide]	
	1000 to 10000	N#Cc1ccc(O[C@@H]2c3ccccc3C[C@H]2N2C[C@H]3CNC[C@H]3C2)cc1F (racemic) [Example 397, 2-fluoro-4-[rac-trans-(1,2)-2-(hexahydropyrrolo[3,4-c]pyrrol-2-yl)indan-1-yloxy]benzonitrile]	
20 to 50		FC(F)(F)c1cnccc1O[C@H]1c2ccccc2C[C@@H]1CN1CCCC1 (racemic) [Example 462, 4-(2-pyrrolidin-1-ylmethylindan-1-yloxy)-3-trifluoromethylpyridine]	
	1000 to 10000	Cc1nnc(C)n1-c1ccc(O[C@H]2c3c(Cl)sc(Cl)c3CC[C@@H]2N2CCCC2)c(F)c1 (racemic) [Example 495, 4-[4-((4S,5S)-1,3-dichloro-5-pyrrolidin-1-yl-4,5,6,7-tetrahydrobenzo[c]thiophen-4-yloxy)-3-fluorophenyl]-3,5-dimethyl-4H-[1,2,4]triazole]	
	1000 to 10000	CC(=O)Nc1cccc(O[C@H]2c3cc(Cl)cc(Cl)c3C[C@@H]2N2CCNCC2)c1 (racemic) [Example 647, N-[3-(rac-trans-(1,2)-4,6-dichloro-2-piperazin-1-ylindan-1-yloxy)phenyl]acetamide]	
	1000 to 10000	N#Cc1ccc(O[C@@H]2c3ccccc3C[C@H]2N2CCC[C@@H](N)C2)c(Cl)c1 (racemic) [Example 523, 4-[rac-trans-(1,2)-2-((R)-3-aminopiperidin-1-yl)indan-1-yloxy]-3-chlorobenzonitrile]	
